One compound from patent US20080081078A1, “Prevention of Cell Proliferation by Inhibiting Myosin Light Chain Kinase” (The Board of Trustees of the University of Illinois, priority 2006, published 2008) can be followed below.

The structures appear in SMILES notation. Like-named read-outs stand apart in the source and are kept apart here.

One test deals with MLL cells. Put plainly: MLL prostate tumor in Copenhagen rats, ML-7 and/or etoposide. The test is classed as in vivo. As for the experimental part: To determine whether ML-7 stimulated the ability of etoposide to induce apoptosis and retard tumor growth more generally in tumor cells, the effects of ML-7 and etoposide on MLL prostate cancer cells were examined. MLL cells grown in culture were harvested and washed in serum-free Hank's buffer. The cells were suspended in 500 μl serum-free Hank's media and 10^6 cells were injected subcutaneously into the right flank of 12-week old male Copenhagen rats anesthetized with ether. […] Rats were randomly divided into four groups, five in each group, and received injections of ML-7 or vehicle via the jugular vein every 4 days for 2 weeks. ML-7 was used at the dose of 35 mg/kg. In mice receiving etoposide the drug was injected IP at the maximum tolerant dose of 50 mg/m^2 daily. Rats were sacrificed with ether 14 days after the start of drug treatment, and tumors removed, weighed and processed as described below.
To test the anticancer effect of ML-7 in a rat prostate cancer model, ML-7 or vehicle was administered by intrajugular injection, and etoposide administered by intraperitoneal injection. Male Copenhagen rats were inoculated with MLL cells as described above. […] The rats were sacrificed after 14 days of drug treatment and tumor weight and body weight were recorded.
Tumor sections were deparaffinized and rehydrated according to standard procedures. […]

Test [1] relates to MLL rat prostate cancer cells. Put plainly: Annexin V / PI flow cytometry apoptosis assay in MLL (MatLyLu) cells. The test is classed as cell-based. On the procedure:
The Mm5MT mouse mammary adenocarcinoma cancer cell line was obtained from American Type Culture Collection (ATCC, Manassas, Va., USA) and was maintained in DMEM medium supplemented with 10% fetal bovine serum (FBS) and 100 U/ml penicillin, 100 μg/ml streptomycin. The MatLy-Lu (MLL) sub-line of the Dunning R-3327 prostate adenocarcinoma (graciously provided by B. Lokeshwar, University of Miami) (Lokeshwar et al., Int. J. Cancer 2002; 98:297-309) was maintained in RPMI1640 medium supplemented with 10% FBS, 250 nM dexamethasone, 100 U/ml penicillin and 100 μg/ml streptomycin.
Mm5MT or MLL cells (200,000 cells per well) were seeded in 6-well dishes one day before drug treatment and cultured as described above. On the day of the experiment, media was changed to DMEM supplemented with 0.5% FBS and the cells were treated with drugs as defined by the specific experimental protocol. ML-7 (Biomol, Plymouth Meeting, Pa.) was incubated with cells for 16 h when used alone. When used in combination with etoposide, ML-7 was added to cells 2 h before adding the indicated concentration of etoposide (Calbiochem, La Jolla, Calif.) and the cells were incubated with ML-7 and etoposide for an additional 16 h. The cells were then treated with trypsin, washed twice with cold PBS and re-suspended in 100 μl of buffer containing 10 mM Hepes, pH 7.4, 140 mM NaCl and 2.5 mM CaCl2 (binding buffer). Then, 5 μl of FITC-conjugated annexin V (Pharmingen, San Diego, Calif.) and 10 μl of propidium iodide (PI) (50 μg/ml) were added and cells were incubated in the dark at room temperature for 15 min. Next, 400 μl of binding buffer was added per sample and the cells were analyzed cytofluorometrically using a Coulter Epics Elite ESP flow cytometer (Ex: 488 nm, Em: 585 nm). At least 10,000 cells were counted per analysis and cells that stained positive for annexin V and PI were judged to be apoptotic.
Cells were grown in culture dishes in Dulbecco's Modified Eagle Medium (Gibco BRL, Gaithersburg, Md.) supplemented with 10% FBS and 1% penicillin and streptomycin. […] The floating and attached cells were combined and analyzed using conventional methods.
To quantify apoptosis, cells were washed twice with cold PBS, resuspended in 100 μl of 10 mM Hepes, pH 7.4, 140 mM NaCl, 2.5 mM CaCl2 (Binding Buffer). […] After incubation, 400 μl of binding buffer was added per sample and cells were analyzed cytofluorimetrically using a Coulter Epics Elite ESP flow cytometer (excitation wavelength: 488 nm, emission wavelength: 585 nm). At least 10,000 cells were counted per analysis and cells that stained positive for Annexin V and PI were considered apoptotic.
Cells were collected 16 h after adding etoposide and apoptosis was quantified by FACS analysis.

Take `COc1cc([C@@H]2c3cc4c(cc3[C@@H](O[C@@H]3O[C@@H]5CO[C@@H](C)O[C@H]5[C@H](O)[C@H]3O)[C@H]3COC(=O)[C@H]23)OCO4)cc(OC)c1O` [etoposide]: the “TUNEL positive nuclei in tumors” value with MLL cells (300 cells, MLL tumors in rats (FIG. 17)) is 35.8%. The “decrease in tumor weight vs vehicle control” value in the test with MLL cells (rats, ML-7 35 mg/kg jugular vein every 4 days, etoposide 50 mg/m^2 IP daily, 14 days) amounted to 43.3%. In addition, the EC50 was 376 µM in test [1] (MLL cells, no ML-7 (FIG. 15), read-out: concentration of etoposide required for inducing apoptosis in 50% of the cells); 68 µM in test [1] (MLL cells, with 5 μM ML-7 pre-treatment (FIG. 15), read-out: concentration of etoposide required for inducing apoptosis in 50% of the cells); roughly 410 µM in test [1] (MatLyLu cells, etoposide alone (FIG. 7), read-out: half-maximal concentration for producing apoptosis); roughly 40 µM in test [1] (MatLyLu cells, etoposide plus 5 μM ML-7 (FIG. 7), read-out: half-maximal concentration for producing apoptosis).
